# Experimental data reported in the supplement of paper PMC11451515.
# Tested on: P12-Ichikawa
# Test: cell viability relative to DMSO control; higher = less cytotoxic
# Details: 48 h
# Method in brief: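 Leukemia cells (NOMO1 or SEM, 500 cells/well; P12-Ichikawa, 1000 cells/well) were seeded in 5 μl in 1536-well plates after at least four passages of adaptation to each medium. They received library compounds in DMSO by pin dosing, 11 threefold points from 47 μM to 0.79 nM. Luminescence with CellTiter-Glo One was read after 48 h at 37°C. Viability is stated per plate relative to DMSO wells, with cell-free wells as background.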
# [1] = HPLM + 10% dialyzed FBS, 0.000781 µM
# [2] = HPLM + 10% dialyzed FBS, 0.00234 µM
# [3] = HPLM + 10% dialyzed FBS, 0.00702 µM
# [4] = HPLM + 10% dialyzed FBS, 0.0211 µM
# [5] = HPLM + 10% dialyzed FBS, 0.0632 µM
# [6] = HPLM + 10% dialyzed FBS, 0.19 µM
# [7] = HPLM + 10% dialyzed FBS, 0.569 µM
# [8] = HPLM + 10% dialyzed FBS, 1.71 µM
# [9] = HPLM + 10% dialyzed FBS, 5.12 µM
# [10] = HPLM + 10% dialyzed FBS, 15.4 µM
# [11] = HPLM + 10% dialyzed FBS, 46.1 µM
# [12] = RPMI 5 mM glucose + 10% FBS, 0.000781 µM
# [13] = RPMI 5 mM glucose + 10% FBS, 0.00234 µM
# [14] = RPMI 5 mM glucose + 10% FBS, 0.00702 µM
# [15] = RPMI 5 mM glucose + 10% FBS, 0.0211 µM
# [16] = RPMI 5 mM glucose + 10% FBS, 0.0632 µM
# [17] = RPMI 5 mM glucose + 10% FBS, 0.19 µM
# [18] = RPMI 5 mM glucose + 10% FBS, 0.569 µM
# [19] = RPMI 5 mM glucose + 10% FBS, 1.71 µM
# [20] = RPMI 5 mM glucose + 10% FBS, 5.12 µM
# [21] = RPMI 5 mM glucose + 10% FBS, 15.4 µM
# [22] = RPMI 5 mM glucose + 10% FBS, 46.1 µM
# [23] = RPMI 5 mM glucose + 10% dialyzed FBS, 0.000781 µM
# [24] = RPMI 5 mM glucose + 10% dialyzed FBS, 0.00234 µM
# [25] = RPMI 5 mM glucose + 10% dialyzed FBS, 0.00702 µM
# [26] = RPMI 5 mM glucose + 10% dialyzed FBS, 0.0211 µM
# [27] = RPMI 5 mM glucose + 10% dialyzed FBS, 0.0632 µM
# [28] = RPMI 5 mM glucose + 10% dialyzed FBS, 0.19 µM
# [29] = RPMI 5 mM glucose + 10% dialyzed FBS, 0.569 µM
# [30] = RPMI 5 mM glucose + 10% dialyzed FBS, 1.71 µM
# [31] = RPMI 5 mM glucose + 10% dialyzed FBS, 5.12 µM
# [32] = RPMI 5 mM glucose + 10% dialyzed FBS, 15.4 µM
# [33] = RPMI 5 mM glucose + 10% dialyzed FBS, 46.1 µM
Compound,cell viability [1] [%],cell viability [2] [%],cell viability [3] [%],cell viability [4] [%],cell viability [5] [%],cell viability [6] [%],cell viability [7] [%],cell viability [8] [%],cell viability [9] [%],cell viability [10] [%],cell viability [11] [%],cell viability [12] [%],cell viability [13] [%],cell viability [14] [%],cell viability [15] [%],cell viability [16] [%],cell viability [17] [%],cell viability [18] [%],cell viability [19] [%],cell viability [20] [%],cell viability [21] [%],cell viability [22] [%],cell viability [23] [%],cell viability [24] [%],cell viability [25] [%],cell viability [26] [%],cell viability [27] [%],cell viability [28] [%],cell viability [29] [%],cell viability [30] [%],cell viability [31] [%],cell viability [32] [%],cell viability [33] [%]
N[S+](=O)([O-])c1cccc2c1C(=O)c1cccc(O)c1C2=O,108,106,115,111,121,114,114,118,105,80.9,4.7,102,105,108,112,116,123,106,111,96.7,102,3.97,98.9,95.8,110,106,113,121,104,112,94.3,92.8,3.3
C[C@]12CC[C@H]3[C@@H](CCC/4=C/C(=O)CC[C@]34C)[C@@H]1CC[C@@H]2O,111,121,121,126,128,124,128,132,126,125,127,–,–,–,–,–,–,–,–,–,–,–,–,–,–,–,–,–,–,–,–,–,–
O=C(c1ccc(F)c(F)c1Nc1ccc(I)cc1F)N1CC(O)([C@@H]2CCCCN2)C1,93.9,102,102,111,109,108,100,99,93.6,12.6,11.1,97.3,102,112,97.8,101,104,87.5,93,82.7,12.8,7.93,88.6,114,115,116,111,108,114,105,96.2,36.8,14.8
CC[C@H](C)C(=O)O[C@H]1C[C@H](O)\C=C2\C=C/[C@H](C)[C@H](CC[C@@H](O)C[C@@H](O)CC(O)=O)[C@@H]12,112,116,105,112,111,109,107,97.1,98.2,96.1,86.7,107,106,107,113,116,110,106,104,98.1,98.9,96.5,114,102,109,109,111,117,106,106,105,101,92.1
COC1=CC=CC(=C1N)\C2=C\C(=O)C3=C(O2)C=CC=C3,110,122,122,133,128,129,134,129,129,133,120,–,–,–,–,–,–,–,–,–,–,–,–,–,–,–,–,–,–,–,–,–,–
CC(/C=C/C(=O)NO)=C\[C@@H](C)C(=O)c1ccc(N(C)C)cc1,111,115,114,107,109,114,90.5,48.4,3.82,1.6,0.388,116,116,119,114,119,111,98.3,28.3,2.14,1.05,0.409,107,113,109,116,110,107,91.8,29.8,2.07,1.68,0.629
COC1=CC=C(C=C1O)C/2=C/C(=O)C3=C(O2)C=C(O)C=C3O,96.2,95.5,96.4,97,95.2,90.3,86.4,90.8,86.7,91.9,88.4,98,92.1,95.3,98.9,104,92.5,90.4,87.5,87.3,91.3,89.9,86.8,83.9,81.7,76.9,78.1,76.5,77.9,79.5,79.5,80.7,80.7
CN1CCC[C@@H]1CCO[C@](C)(c1ccccc1)c1ccc(Cl)cc1,94.5,100,99.3,113,105,104,104,107,112,109,97.2,97.8,104,106,104,108,98.1,104,114,100,119,101,93.9,101,111,106,103,100,105,102,104,108,90
NCCCCNCCCN,108,108,115,108,110,121,115,116,109,104,41.4,110,109,113,114,114,118,123,118,105,73.7,3.31,101,102,98.4,116,104,111,115,111,115,87,6.5
Cc1cc(C(=O)N2CCN(c3cccc(Cl)c3)CC2)n(-c2ccccc2)n1,109,107,103,107,103,103,105,50.2,23.9,10.1,12.5,105,113,102,105,101,90.2,101,80.5,36.8,10.4,16.6,101,92.8,105,104,103,91.2,95.5,70.1,40.9,20.5,20.4
ClC1=CC\2=C(NC(=O)\C(=C2N[C@@H]3CN4CCC3CC4)C5=NC6=C([NH]5)C=CC=C6)C=C1,110,117,112,113,112,104,56.8,11.9,8.98,10.4,18.9,102,120,113,120,122,55.9,19.6,13.1,11,9.4,14.9,116,122,119,112,116,95.8,45.1,14,12.5,12.4,16.4
CN1c2ccccc2C(=O)N2CCc3c([nH]c4ccccc34)C21 (stereo not given),122,118,112,123,119,120,116,115,111,116,117,125,139,113,119,121,118,122,119,117,118,111,127,122,114,125,129,116,111,114,118,115,107
ClC1=CC\2=C(OC3=C(C=CC=C3)\N=C2N4CCNCC4)C=C1,100,104,113,103,109,101,107,109,99.7,98,95.5,103,105,107,105,93.8,90.6,99.6,95.2,90.3,87.7,87.8,100,102,100,104,99.3,99.7,99.1,92.5,89.3,98.3,88.6
CC[C@]12\C=C/CN3CC[C@]4([C@@H](N(C)C5=CC(=C(C=C45)[C@]6(C[C@H]7C[C@H](CN(C7)CC8=C6[NH]C9=C8C=CC=C9)C(C)(F)F)C(=O)OC)OC)[C@](O)([C@@H]1OC(C)=O)C(=O)OC)[C@H]23,91.9,93.3,92,69.4,37,12,15.3,13.2,8.31,8.59,6.21,93.7,88.8,85.9,63.7,18.6,13.9,20.9,11.4,8.45,7.91,5.99,87.4,83,83.5,79.3,51.6,27.1,26.5,21.5,16.1,13,5.7
O=C(Nc1ncc(SCCN2CCCC2)s1)[C@]1(c2ccc([S+](=O)([O-])C3CC3)cc2)C[C@H]1C1CCCCC1,117,115,121,121,116,113,116,108,111,96.5,68.8,120,120,111,123,108,123,105,112,105,108,43.6,111,122,114,121,109,118,120,109,108,88.3,35.9
CN1\N=C(N)/C2=C[N]([C@@H]3O[C@H](CO[P](O)(O)=O)[C@@H](O)[C@H]3O)C4=C2C1=NC=N4,112,122,110,109,111,96.1,77.9,53,54,43.2,37.9,114,110,105,95.1,93.9,75.5,72,60.6,52.7,44.7,41.4,119,114,108,113,101,89.4,72.3,60.4,58.3,51,41.4
CNCc1ccc(-c2[nH]c3cc(F)cc4c3c2CCNC4=O)cc1,109,124,121,121,124,126,130,119,122,123,119,–,–,–,–,–,–,–,–,–,–,–,–,–,–,–,–,–,–,–,–,–,–
